Results taken from patent US8946453B2, “Chemical compounds” (Syngenta Participations AG, priority 2011, dated 2015).

What was measured:
[1] = system: Myzus persicae (Green Peach Aphid); assay: Activity against Myzus persicae on cabbage plants, feeding/residual contact, spray chamber; settings: in Brassica oleracea, 144 h, read-out: activity against Myzus persicae
[2] = system: Myzus persicae (Green Peach Aphid); assay: Activity against Myzus persicae, mixed population, feeding/residual contact, preventive (sunflower leaf discs); settings: foliar, 144 h, read-out: activity
[3] = system: Myzus persicae (Green Peach Aphid); assay: Activity against Myzus persicae, mixed population, systemic/feeding, curative (pea seedling roots in test solution); settings: 144 h, read-out: activity

CON1CCC(CC2NC(=O)C(c3c(C)cc(Cl)cc3C)C2=O)CC1 (stereo not drawn) [Compound P2.22]
pest or weed control at 200 ppm [1]: ≥ 80% | pest or weed control at 400 ppm [2]: > 80%

CCOC(=O)OC1=C(c2cc(C)ccc2C)C(=O)NC1CC1CCS(=O)(=NC#N)CC1 (stereo not drawn) [Compound P1.5]
pest or weed control at 400 ppm [2]: > 80%

CCOC(=O)OC1=C(c2c(C)cc(Cl)cc2C)C(=O)NC1CC1CCN(OC)CC1 (stereo not drawn) [Compound P1.19]
pest or weed control at 400 ppm [3]: > 80%

CCOC(=O)OC1=C(c2c(C)cc(C)cc2C)C(=O)OC1CC1CCN(OC)CC1 (stereo not drawn) [Compound P1.14]
pest or weed control at 200 ppm [1]: ≥ 80% | pest or weed control at 400 ppm [3]: > 80%

Cc1ccc(C)c(C2C(=O)NC(CC3CCN(C)CC3)C2=O)c1 (stereo not drawn) [Compound P2.10]
melting point: 142 to 145 °C

CCOC(=O)OC1=C(c2cc(C)ccc2C)C(=O)NC1CC1CCSCC1 (stereo not drawn) [Compound P1.2, carbonic acid 4-(2,5-dimethyl-phenyl)-5-oxo-2-(tetrahydro-thiopyran-4-ylmethyl)-2,5-dihydro-1H-pyrrol-3-yl ester ethyl ester]
melting point: 75 to 76 °C

CCOC(=O)OC1=C(c2cc(C)ccc2C)C(=O)NC1CC1CCS(=NC#N)CC1 (stereo not drawn) [Compound P1.9, carbonic acid 2-(1-cyanoimino-hexahydro-1λ^4-thiopyran-4-ylmethyl)-4-(2,5-dimethyl-phenyl)-5-oxo-2,5-dihydro-1H-pyrrol-3-yl ester ethyl ester]
melting point: 103 to 105 °C

Cc1ccc(C)c(C2=C(O)C(CC3CCS(=O)(=O)CC3)NC2=O)c1 (stereo not drawn) [Compound P2.6, 3-(2,5-dimethyl-phenyl)-5-(1,1-dioxo-hexahydro-1λ^6-thiopyran-4-ylmethyl)-4-hydroxy-1,5-dihydro-pyrrol-2-one]
melting point: 244 to 246 °C

CCOC(=O)OC1=C(c2c(C)cc(Cl)cc2C)C(=O)NC1C1CCN(OC)CC1 (stereo not drawn) [Compound P1.18]
pest or weed control at 400 ppm [2]: > 80%

Cc1cc(C)c(C2C(=O)NC(CC3CCN(C)CC3)C2=O)c(C)c1 (stereo not drawn) [Compound P2.11]
melting point: 133 to 136 °C

CON1CCC(CC2NC(=O)C(c3c(C)cc(C)cc3C)C2=O)CC1 (stereo not drawn) [Compound P2.13]
pest or weed control at 200 ppm [1]: ≥ 80% | pest or weed control at 400 ppm [2]: > 80% | pest or weed control at 400 ppm [3]: > 80%

Cc1cc(C)c(C2=C(OC(=O)C(C)(C)C)C(CC3CCOCC3)OC2=O)c(C)c1 (stereo not drawn) [Compound P1.16]
pest or weed control at 400 ppm [2]: > 80%

CON1CCC(CC2OC(=O)C(c3c(C)cc(C)cc3C)C2=O)CC1 (stereo not drawn) [Compound P2.16]
pest or weed control at 200 ppm [1]: ≥ 80% | pest or weed control at 400 ppm [2]: > 80% | pest or weed control at 400 ppm [3]: > 80%

CON1CCC(C2NC(=O)C(c3c(C)cc(Cl)cc3C)C2=O)CC1 (stereo not drawn) [Compound P2.21]
pest or weed control at 200 ppm [1]: ≥ 80% | pest or weed control at 400 ppm [2]: > 80% | pest or weed control at 400 ppm [3]: > 80%

CCOC(=O)OC1=C(c2cc(C)ccc2C)C(=O)NC1CC1CCS(=O)(=O)CC1 (stereo not drawn) [Compound P1.3]
melting point: 97 to 101 °C

Cc1cc(C)c(C2C(=O)NC(CC3CCOCC3)C2=O)c(C)c1 (stereo not drawn) [Compound P2.1]
pest or weed control at 400 ppm [2]: > 80%

CCOC(=O)OC1=C(c2c(C)cc(C)cc2C)C(=O)NC1C1CCN(OC)CC1 (stereo not drawn) [Compound P1.12, carbonic acid ethyl ester 2-(1-methoxy-piperidin-4-yl)-5-oxo-4-(2,4,6-trimethyl-phenyl)-2,5-dihydro-1H-pyrrol-3-yl ester]
pest or weed control at 200 ppm [1]: ≥ 80% | pest or weed control at 400 ppm [2]: > 80% | pest or weed control at 400 ppm [3]: > 80%

CCOC(=O)OC1=C(c2cc(C)ccc2C)C(=O)NC1CC1CCS(=O)(=NC(=O)C(F)(F)F)CC1 (single isomer, unassigned) [Compound P1.7, carbonic acid 4-(2,5-dimethyl-phenyl)-5-oxo-2-[1-oxo-1-(2,2,2-trifluoro-acetylimino)-hexahydro-1λ^6-thiopyran-4-ylmethyl]-2,5-dihydro-1H-pyrrol-3-yl ester ethyl ester]
melting point: 87 to 89 °C

CCOC(=O)OC1=C(c2cc(C)ccc2C)C(=O)NC1CC1CCN(OC)CC1 (stereo not drawn) [Compound P1.1, carbonic acid 4-(2,5-dimethyl-phenyl)-2-(1-methoxy-piperidin-4-ylmethyl)-5-oxo-2,5-dihydro-1H-pyrrol-3-yl ester ethyl ester]
pest or weed control at 200 ppm [1]: ≥ 80% | pest or weed control at 400 ppm [2]: > 80%

CCOC(=O)OC1=C(c2c(C)cc(C)cc2C)C(=O)NC1CC1CCN(OC)CC1 (stereo not drawn) [Compound P1.10]
pest or weed control at 200 ppm [1]: ≥ 80% | pest or weed control at 400 ppm [2]: > 80% | pest or weed control at 400 ppm [3]: > 80%

Cc1ccc(C)c(C2C(=O)NC(CC3CCOCC3)C2=O)c1 (stereo not drawn) [Compound P2.4]
melting point: 114 to 116 °C

CON1CCC(C2OC(=O)C(c3c(C)cc(C)cc3C)C2=O)CC1 (stereo not drawn) [Compound P2.17]
pest or weed control at 200 ppm [1]: ≥ 80% | pest or weed control at 400 ppm [2]: > 80% | pest or weed control at 400 ppm [3]: > 80%

CON1CCC(CC2NC(=O)C(c3cc(C)ccc3C)=C2O)CC1 (stereo not drawn) [Compound P2.2, 3-(2,5-dimethyl-phenyl)-4-hydroxy-5-(1-methoxy-piperidin-4-ylmethyl)-1,5-dihydro-pyrrol-2-one]
pest or weed control at 400 ppm [2]: > 80%

CCOC(=O)OC1=C(c2cc(C)ccc2C)C(=O)NC1CC1CCS(=NC(=O)C(F)(F)F)CC1 (stereo not drawn) [Compound P1.8]
melting point: 190 to 192 °C

CCOC(=O)OC1=C(c2c(C)cc(C)cc2C)C(=O)OC1C1CCN(OC)CC1 (stereo not drawn) [Compound P1.15]
pest or weed control at 200 ppm [1]: ≥ 80% | pest or weed control at 400 ppm [2]: > 80% | pest or weed control at 400 ppm [3]: > 80%

CCOC(=O)OC1=C(c2cc(C)ccc2C)C(=O)NC1CC1CC[S+]([O-])CC1 (stereo not drawn) [Compound P1.4, carbonic acid 4-(2,5-dimethyl-phenyl)-5-oxo-2-(1-oxo-hexahydro-1λ^4-thiopyran-4-ylmethyl)-2,5-dihydro-1H-pyrrol-3-yl ester ethyl ester]
melting point: 103 to 106 °C

CCOC(=O)OC1=C(c2cc(C)ccc2C)C(=O)NC1C1CCN(OC)CC1 (stereo not drawn) [Compound P1.11]
pest or weed control at 200 ppm [1]: ≥ 80% | pest or weed control at 400 ppm [3]: > 80%

CON1CCC(C2NC(=O)C(c3c(C)cc(C)cc3C)=C2O)CC1 (stereo not drawn) [Compound P2.12, 4-hydroxy-5-(1-methoxy-piperidin-4-yl)-3-(2,4,6-trimethyl-phenyl)-1,5-dihydro-pyrrol-2-one]
melting point: 206 to 209 °C

CCOC(=O)OC1=C(c2cc(C)ccc2C)C(=O)NC1CC1CCS(=O)(=NC(=O)C(F)(F)F)CC1 (single isomer, unassigned) [Compound P1.6, carbonic acid 4-(2,5-dimethyl-phenyl)-5-oxo-2-[1-oxo-1-(2,2,2-trifluoro-acetylimino)-hexahydro-1λ^6-thiopyran-4-ylmethyl]-2,5-dihydro-1H-pyrrol-3-yl ester ethyl ester]
melting point: 91 to 93 °C

CON1CCC(C2NC(=O)C(c3cc(C)ccc3C)C2=O)CC1 (stereo not drawn) [Compound P2.14]
pest or weed control at 200 ppm [1]: ≥ 80%

CCOC(=O)OC1=C(c2c(C)cc(C)cc2C)C(=O)N(C)C1CC1CCN(OC)CC1 (stereo not drawn) [Compound P1.13]
pest or weed control at 200 ppm [1]: ≥ 80% | pest or weed control at 400 ppm [2]: > 80%

Cc1ccc(C)c(C2C(=O)NC(CC3CCS(=O)(=NC#N)CC3)C2=O)c1 (stereo not drawn) [Compound P2.9]
melting point: 189 to 191 °C
